Reference: US6469168B1, “Piperazinylalkylthiopyrimidine derivatives, pharmaceutical compositions containing the same, and a process for the preparation of the active substance” (EGIS Gyógyszergyár Rt., priority 1999, dated 2002)
Counter-ions that a name gives are not always drawn. Like-named read-outs stand apart in the source and are kept apart here.

Legend:
[1] = test system: male SPRD rats; assay: Elevated plus-maze test; type: in vivo, rat; conditions: for minimal effective dose: Rattus norvegicus, po, 1 h, read-out: Minimum effective dose
Method: 1. Elevated Plus-Maze Test
The tests were carried out on male SPRD rats weighing 220 to 260 g. Each group of animal consisted of 8 to 10 pieces of rat. The substance to be examined or the vehicle (i.e. distilled water or a 0.4% solution of methylcellulose) was administered to the animals in a volume of 5 ml/kg as a solution or suspension per os 60 minutes prior to the test.
The elevated plus-maze consists of two open and two 40 cm wall enclosed arms of the same size (50×15 cm) arranged in the shape of a cross. The arms of the same type are opposite to each other. The junction of the four arms forms a central square area (15×15 cm). The apparatus is made of a wooden material elevated to a height of 50 cm and illuminated by a dim light from above. The essence of the method is that during the exploration of the apparatus, the animals spend considerably more time in the closed arms than in the open arms due to the natural fear from open space and height. […] Methods., 14, 149-167 (1985)].

[2] = test system: male NMRI mice; assay: Determination of the spontaneous motor activity; conditions: p.o., 60 minutes prior to the test, dose producing 50% of inhibition of motor activity
Method: 2. Determination of the Spontaneous Motor Activity
For the experiments, male NMRI mice weighing 20 to 25 g were used. Each treatment group consisted of 10 mice. The substance to be examined or the vehicle (i.e. a 0.4% solution of methylcellulose) was administered to the animals in a volume of 20 ml/kg as a suspension per os 60 minutes prior to the test. […] In case of anxiolytics, the value of the anxiolytic effect depends on the presence or absence of the sedative action (the latter is […]). For the experiments, an apparatus “digital motimeter” having 10 measuring places was used. The motion of the animals was indicated by the interruption of three parallel beams of infrared light at each measuring place, and the interruptions were recorded by the apparatus. The activity of one animal was determined at each measuring place. […] Int.

[3] = p.o., 60 minutes prior to the test, male SPRD rats, time spent in and entries into open arms

| Compound | ID50 [2] [mg/kg] | melting point [°C] | minimal effective dose [1, 3] [mg/kg] | further results |
| --- | --- | --- | --- | --- |
| 4,6-Diamino-2-[2-(4-methyl-1-piperazinyl)propylthio]-5-(2-methoxybenzyl)pyrimidine trihydrochloride hydrate [Example 4] | 32.8 | – | – | Minimum effective dose [1, 3]: 1 mg/kg |
| 4,6-Diamino-2-[2-/4-(2-dimethylaminoethyl)-1-piperazinyl/-ethyl-thio]-5-(2-methoxybenzyl)pyrimidine tetrahydrochloride dihydrate [Example 6] | >100 | – | – | Minimum effective dose [1, 3]: 0.03 mg/kg |
| 4,6-Diamino-2-[3-(1-piperazinyl)ethylthio]-5-(2-ethoxybenzyl)-pyrimidine trihydrochloride trihydrate [Example 14] | – | – | – | Minimum effective dose [1, 3]: 1 mg/kg |
| 4,6-Diamino-2-[4-(4-methyl-1-piperazinyl)ethylthio]-5-(2-ethoxybenzyl)pyrimidine trihydrochloride hydrate [Example 13] | – | – | – | Minimum effective dose [1, 3]: 1 mg/kg |
| 4,6-Diamino-5-(2-methoxybenzyl)-2-[2-(1-piperazinyl)ethylthio]-pyrimidine fumarate [Example 2] | >100 | – | – | Minimum effective dose [1, 3]: 1 mg/kg |
| COc1ccccc1Cc1c(N)nc(SCCN2CCN(C(C)C)CC2)nc1N (as salt: hydrochloride) (hydrate or solvate) [Example 5, 4,6-Diamino-2-[2-(4-isopropyl-1-piperazinyl)ethylthio]-5-(2-methoxybenzyl)pyrimidine trihydrochloride hydrate] | – | 253 to 255 | – | – |
| COc1ccccc1Cc1c(N)nc(SCCCCN2CCN(C)CC2)nc1N (as salt: hydrochloride) (hydrate or solvate) [Example 8, 4,6-Diamino-2-[4-(4-methyl-1-piperazinyl)butylthio]-5-(2-methoxybenzyl)pyrimidine trihydrochloride hydrate] | – | 202 | – | – |
| Nc1nc(SCCCN2CCNCC2)nc(N)c1Cc1ccc(Cl)cc1 (as salt: hydrochloride) (hydrate or solvate) [Example 17, 4,6-Diamino-2-[3-(1-piperazinyl)propylthio]-5-(4-chlorobenzyl)-pyrimidine trihydrochloride trihydrate] | – | 187 | – | – |
| Nc1nc(SCCN2CCNCC2)nc(N)c1Cc1ccc(F)cc1 (as salt: hydrochloride) (hydrate or solvate) [Example 19, 4,6-Diamino-2-[2-(1-piperazinyl)ethylthio]-5-(4-fluorobenzyl)-pyrimidine trihydrochloride hydrate] | – | 168 to 170 | – | – |
| COc1ccccc1Cc1c(N)nc(SCCN2CCN(CCCN(C)C)CC2)nc1N (as salt: hydrochloride) (hydrate or solvate) [Example 26, 4,6-Diamino-2-{2-[4-(3-dimethylaminopropyl)-1-piperazinyl]-ethylthio}-5-(2-methoxybenzyl)pyrimidine tetrahydrochloride hydrate] | – | 262 to 264 | – | – |
| COc1ccccc1Cc1c(N)nc(SCCCN2CCNCC2)nc1N (as salt: hydrochloride) [Example 10, 4,6-Diamino-2-[3-(1-piperazinyl)propylthio]-5-(2-methoxy-benzyl)pyrimidine trihydrochloride] | – | 197 to 198 | – | – |
| COc1ccccc1Cc1c(N)nc(SCCCCN2CCNCC2)nc1N (as salt: hydrochloride) [Example 18, 4,6-Diamino-2-[4-(1-piperazinyl)butylthio]-5-(2-methoxybenzyl)-pyrimidine trihydrochloride] | – | 255 | – | – |
| COc1ccccc1Cc1c(N)nc(SCCN2CCNCC2)nc1N [1 (besylate), 4,6-Diamino-5-(2-methoxybenzyl)-2-[2-(1-piperazinyl)ethylthio]-pyrimidine] | >90 | – | – | Minimum effective dose [1, 3]: 1 mg/kg |
| COc1ccccc1Cc1c(N)nc(SCCN2CCNCC2)nc1N [Example 1 (fumarate), 4,6-Diamino-5-(2-methoxybenzyl)-2-[2-(1-piperazinyl)ethylthio]-pyrimidine] | >100 | – | – | Minimum effective dose [1, 3]: 3 mg/kg |
| COc1ccccc1Cc1c(N)nc(SCCN2CCN(C(C)C)CC2)nc1N [Example 5, 4,6-Diamino-2-[2-(4-isopropyl-1-piperazinyl)ethylthio]-5-(2-methoxybenzyl)pyrimidine trihydrochloride hydrate] | >100 | – | 3 | – |
| CCOc1ccccc1Cc1c(N)nc(SCCCN2CCN(C=O)CC2)nc1N [Example 7, 4,6-Diamino-2-[3-(4-formyl-1-piperazinyi)propylthio]-5-(2-ethoxybenzyl)pyrimidine] | >100 | – | – | Minimum effective dose [1, 3]: <1 mg/kg |
| COc1ccccc1Cc1c(N)nc(SCCCCN2CCN(C)CC2)nc1N [Example 8, 4,6-Diamino-2-[4-(4-methyl-1-piperazinyl)butylthio]-5-(2-methoxybenzyl)pyrimidine trihydrochloride hydrate] | >100 | – | 3 | – |
| COc1ccccc1Cc1c(N)nc(SCCCN2CCN(C=O)CC2)nc1N [Example 9, 4,6-Diamino-2-[3-(4-formyl-1-piperazinyl)propylthio]-5-(2-methoxybenzyl)pyrimidine] | – | 174 to 176 | 3 | – |
| COc1ccccc1Cc1c(N)nc(SCCCN2CCNCC2)nc1N [Example 10, 4,6-Diamino-2-[3-(1-piperazinyl)propylthio]-5-(2-methoxy-benzyl)pyrimidine trihydrochloride] | – | – | 1 | – |
| COc1ccccc1Cc1c(N)nc(SCCCN2CCN(C(C)=O)CC2)nc1N [Example 12, 4,6-Diamino-2-[3-(4-acetyl-1-piperazinyl)propylthio]-5-(2-methoxybenzyl)pyrimidine] | – | 208 to 209 | 1 | – |
| COc1ccccc1Cc1c(N)nc(SCCN2CCN(C(C)=O)CC2)nc1N [Example 16, 4,6-Diamino-2-[2-(4-acetyl-1-piperazinyl)ethylthio]-5-(2-methoxybenzyl)pyrimidine] | >100 | 198.5 to 199.5 | 3 | – |
| Nc1nc(SCCCN2CCNCC2)nc(N)c1Cc1ccc(Cl)cc1 [Example 17, 4,6-Diamino-2-[3-(1-piperazinyl)propylthio]-5-(4-chlorobenzyl)-pyrimidine trihydrochloride trihydrate] | >100 | – | 1 | – |
| COc1ccccc1Cc1c(N)nc(SCCCCN2CCNCC2)nc1N [Example 18, 4,6-Diamino-2-[4-(1-piperazinyl)butylthio]-5-(2-methoxybenzyl)-pyrimidine trihydrochloride] | >100 | – | 1 | – |
| Nc1nc(SCCN2CCNCC2)nc(N)c1Cc1ccc(F)cc1 [Example 19, 4,6-Diamino-2-[2-(1-piperazinyl)ethylthio]-5-(4-fluorobenzyl)-pyrimidine trihydrochloride hydrate] | >100 | – | 0.01 | – |
| CC(C)c1ccc(Cc2c(N)nc(SCCN3CCNCC3)nc2N)cc1 [Example 25, 4,6-Diamino-2-[2-(1-piperazinyl)ethylthio]-5-(4-isopropylbenzyl)-pyrimidine] | – | 63 to 64 | – | – |
| COc1ccccc1Cc1c(N)nc(SCCN2CCN(CCCN(C)C)CC2)nc1N [Example 26, 4,6-Diamino-2-{2-[4-(3-dimethylaminopropyl)-1-piperazinyl]-ethylthio}-5-(2-methoxybenzyl)pyrimidine tetrahydrochloride hydrate] | >100 | – | 0.3 | – |
| CN1C(=O)CN=C(c2ccccc2)c2cc(Cl)ccc21 [diazepam, 7-chloro-1,3-dihydro-1-methyl-5-phenyl-2H-1,4-benzodiazepine-2-one, reference compound] | – | – | – | minimal effective dose [1]: 1 mg/kg |
